Test results taken from US9540389B2, “Antimicrobial potentiators” (priority 2013, dated 2017).

Key:
Assay in all cases: MIC assay (microbroth dilution) ± 25 μM EPI
Assay type in all cases: cell-based
[1] = system: Salmonella enterica ATCC 14028
In short: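 Reported values are geometric means of three replicate determinations. Growth inhibition was scored by broth microdilution following CLSI M7-A7, except that Luria broth was substituted for Mueller-Hinton and each well carried 2% DMSO.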

Escherichia coli 331 = conditions: E. coli 331
In short: (§1)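 CLSI M7-A7 broth microdilution, modified: LB medium, DMSO 2% final. Triplicate runs, geometric mean reported. Checkerboard drug/EPI grids set up identically. Deletion strains: Keio mutations P1-transduced into AB1157.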

[2] = system: Enterobacter aerogenes ATCC 13048
In short: (§2)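 Knockout alleles from Keio strains were moved into AB1157 by P1 transduction. MICs were determined by CLSI M7-A7 microbroth dilution, with LB replacing MHB and 2% final DMSO. Checkerboard combinations used the same modifications, and values are geometric means of triplicates.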

[3] = system: Escherichia coli ATCC 25922
In short: as §1

Escherichia coli AB1157 = conditions: Escherichia coli, AB1157, read-out: MICs (μg/ml) ± EPIs: None
In short: as §2

[4] = MIC no cmpd/MIC + 25 μM MBX2319

SMILES: CCN1CCN(C(=O)N[C@@H](C(=O)N[C@@H]2C(=O)N3[C@@H]2SC(C)(C)[C@@H]3C(=O)O)c2ccccc2)C(=O)C1=O [Piperacillin, piperacillin]
- MIC (μg/ml) ± EPI: MBX2319 ([1]; + 25 μM MBX2319): 0.5 µg/mL
- MIC (μg/ml) ± EPI: PAβN ([1]; + 25 μM PAβN): 4 µg/mL
- MIC ([1]; ATCC14028, no EPI, read-out: MIC (μg/ml) ± EPI: None): 2.4 µg/mL
- MIC Ratio MBX2319 [1, 4]: 4.8
- MIC Ratio PAβN ([1]; MIC no cmpd/MIC + 25 μM PAβN): 0.6
- MIC (μg/ml) ± EPI: MBX2319 (Escherichia coli 331; + 25 μM MBX2319): 0.707 µg/mL
- MIC (μg/ml) ± EPI: PAβN (Escherichia coli 331; + 25 μM PAβN): 4 µg/mL
- MIC Ratio MBX2319 (Escherichia coli 331; [4]): 5.6
- MIC Ratio PAβN (Escherichia coli 331; MIC no cmpd/MIC + 25 μM PAβN): 1
- MIC (Escherichia coli 331; Escherichia coli, no EPI, read-out: MIC (μg/ml) ± EPI: None): 4 µg/mL
- MIC (μg/ml) ± EPI: MBX2319 ([2]; + 25 μM MBX2319): 1.4 µg/mL
- MIC (μg/ml) ± EPI: PAβN ([2]; + 25 μM PAβN): 16 µg/mL
- MIC ([2]; Klebsiella aerogenes, ATCC13048, no EPI, read-out: MIC (μg/ml) ± EPI: None): 4 µg/mL
- MIC Ratio MBX2319 [2, 4]: 2.8
- MIC Ratio PAβN ([2]; MIC no cmpd/MIC + 25 μM PAβN): 0.2
- MIC (μg/ml) ± EPI: MBX2319 ([3]; E. coli ATCC 25922, + 25 μM MBX2319): 1.68 µg/mL
- MIC (μg/ml) ± EPI: PAβN ([3]; E. coli ATCC 25922, + 25 μM PAβN): 4 µg/mL
- MIC Ratio MBX2319 ([3]; E. coli ATCC 25922, MIC no cmpd/MIC + 25 μM MBX2319): 1.7
- MIC Ratio PAβN ([3]; E. coli ATCC 25922, MIC no cmpd/MIC + 25 μM PAβN): 0.7
- MIC ([3]; Escherichia coli, ATCC25922, read-out: MIC (μg/ml) ± EPI: None): 2.83 µg/mL
- MIC (Escherichia coli AB1157): 4 µg/mL
